Laboratory results taken from patent publication US20230310453A1, “METHODS FOR EXTRACTING NEUTROPHIL SERINE PROTEASES AND TREATING DIPEPTIDYL PEPTIDASE 1-MEDIATED CONDITIONS” (INSMED, INC., priority 2020, published 2023).

Key:
Format in all cases: in vivo, human
active NE [1] = experiment: Active NE concentration in patients' WBC samples (kinetic NE assay)
Experimental: (§1) In the NE kinetic assay, an exogenous peptide substrate with high specificity for NE (shown in Table 1A) was cleaved by NE present in the sample, generating a fluorophore reaction product 7-amino 4-methyl coumarin (AMC). The initial rate of this reaction, which is proportional to the amount of active NE in the sample, was measured in relative fluorescence units (RFU) and converted to the concentration of active NE in the sample. Specifically, standards were created via serial dilution of Human NE Stock Protein (Sigma, Cat. No E8140-1UN, see Table 1A) in a standard diluent, which matched the ratio of lysis buffer to Enzyme Buffer (sample diluent) of the sample dilutions on a multi-well plate. Sample dilutions were created on the plate using Enzyme Buffer as the diluent. A 1:25 dilution of either DMSO or NE inhibitor (Abcam, Cat. No ab142154, final concentration 80 μM) in Assay Buffer was added to all wells and allowed to incubate at 37° C. for 15 minutes. […] The plate was immediately read at 350/450 nm (Excitation/Emission) post substrate addition in kinetic mode every 5 minutes for up to 3 hours (minimum 30 minutes) at 37° C. on a BioTek Gen5 Plate Reader. The raw data of the readings were exported into an Excel file for data analysis described below.
(§2) After NE and PR3 are extracted from a WBC pellet using a multi-step repeated pellet lysis process, total NE and PR3 activity in cell lysates may be determined by individually assaying each cell lysate from each lysis step for the enzyme activity and calculating the total activity. Alternatively, the total activity may be determined by pooling the cell lysates for a single NE or PR3 activity assay. […]
(§3) In the trial, subjects were randomized in a 1:1:1 ratio to 3 treatment arms to receive either (i) 10 mg brensocatib once daily; (ii) 25 mg brensocatib once daily, or (iii) matching placebo once daily. […] The time to the first pulmonary exacerbation (primary end point), the rate of pulmonary exacerbations (secondary end point), change in concentration of active NE in sputum, and safety were assessed. […]

active CatG = experiment: Active CatG concentration in patients' sputum samples (kinetic CatG assay); conditions: for % reduction from baseline in sputum samples, active CatG: week 4, reduction in geometric mean
Experimental: CatG activity was measured in an enzymatic assay using an exogenous peptide substrate. Cleavage of the substrate generated the chromophore or fluorophore reaction product, p-Nitroaniline (pNA), 6-Carboxytetramethylrhodamine (6-TAMRA) or 7-Methoxycoumarin-4-acetic acid (MCA). The initial rate of this reaction is proportional to the amount of active CatG in a sample and was measured in absorbance (ABS) or fluorescence (RFU), depending on the substrate, and converted to the concentration of active CatG in the sample. Specifically, standards were created via serial dilution of stock human CatG protein (Sigma, Cat. No C4428-.25UN) in a standard diluent which matched the ratio of lysis buffer to Enzyme Buffer (sample diluent) of the sample dilutions on plate. Sample dilutions were created on the plate using Enzyme Buffer as the diluent and/or run neat. […] The plate was immediately read at appropriate wavelength according to Table 1B post substrate addition in kinetic mode every 5 minutes for 1.5 hours at 37° C. on a BioTek's Synergy Neo or BioTek's Synergy HIM plate reader with Gen5 Software. […]
as §3
In this example, we further determined the changes from baseline in the concentrations of active PR3 and CatG in the same sputum samples obtained from the patients in the three treatment arms using the kinetic PR3 and CatG assays described in the previous examples, and compared the changes with those of active NE. Additionally, we extracted NE and PR3 from the white blood cells (WBCs) derived from the patients' blood samples, and determined the changes from baseline in the concentrations of active NE and PR3 in the WBC samples using the methods described in Example 7. […]

active NE [2] = experiment: Active NE concentration in patients' sputum samples; conditions: for % reduction from baseline in sputum samples, active NE: week 4, reduction in geometric mean
Experimental: as §1, §3
(§4) In this example, we further determined the changes from baseline in the concentrations of active PR3 and CatG in the same sputum samples obtained from the patients in the three treatment arms using the kinetic PR3 and CatG assays described in the previous examples, and compared the changes with those of active NE. […]

[3] = system: patients with non-cystic fibrosis bronchiectasis (NCFBE); experiment: Phase 2 randomized, double-blind, placebo-controlled trial: pulmonary exacerbations; conditions: for reduction in the frequency of pulmonary exacerbations as compared to placebo: once daily 24 weeks; for time to the first pulmonary exacerbation (primary end point): vs placebo
Source text: We have conducted a phase 2, randomized, double-blind, placebo-controlled trial to assess the efficacy, safety and tolerability, and pharmacokinetics of (2S)—N-{(1S)-1-cyano-2-[4-(3-methyl-2-oxo-2,3-dihydro-1,3-benzoxazol-5-yl) phenyl] ethyl}-1,4-oxazepane-2-carboxamide (brensocatib) administered once daily for 24 weeks in patients with non-cystic fibrosis bronchiectasis (NCFBE). See the details and results of the trial in N Engl J Med. 383(22):2127-2137 (2020); incorporated herein by reference in its entirety for all purposes.
In the trial, subjects were randomized in a 1:1:1 ratio to 3 treatment arms to receive either (i) 10 mg brensocatib once daily; (ii) 25 mg brensocatib once daily, or (iii) matching placebo once daily. Following a screening visit (Visit 1) and a screening period of up to 6 weeks, subjects were randomized at Visit 2 (Day 1, “Baseline”) and returned thereafter for study visits at 2 weeks (Visit 3), 4 weeks (Visit 4), 8 weeks (Visit 5), 12 weeks (Visit 6), 16 weeks (Visit 7), 20 weeks (Visit 8), 24 weeks (Visit 9, end of treatment) and 28 weeks (Visit 10, end of study). During each visit, assessments and procedures were performed, including collection of blood and sputum samples at baseline and weeks 2, 4, 12, 24, and 28 for biomarker assessment. Study treatment occurred between Visits 2-9. The time to the first pulmonary exacerbation (primary end point), the rate of pulmonary exacerbations (secondary end point), change in concentration of active NE in sputum, and safety were assessed. […] Specifically, patients treated with brensocatib experienced a 36% reduction in the 10 mg arm (p=0.04) and a 25% reduction in the 25 mg arm (p=0.17).

active PR3 [4] = experiment: Active PR3 concentration in patients' sputum samples (kinetic PR3 assay); conditions: for % reduction from baseline in sputum samples, active PR3: week 4, reduction in geometric mean
Experimental: Except for using an exogenous peptide substrate specific for PR3 instead of NE, the PR3 kinetic assay is based on the same principle as the NE kinetic assay described above. Cleavage of PR3 Substrate by PR3 present in the sample generated the fluorophore reaction product 2-Aminobenzoyl or Anthraniloyl (Abz). The initial rate of this reaction, which is proportional to the amount of active PR3 in the sample, was measured in RFU and converted to the concentration of active PR3 in the sample. Specifically, standards were created via serial dilution of Human PR3 Stock Protein (Sigma, Cat. No SRP6309-25UG, see Table 1A) in a standard diluent which matched the ratio of lysis buffer to Enzyme Buffer (sample diluent) of the sample dilutions on a multi-well plate. Sample dilutions were created on the plate using Enzyme Buffer as the diluent. A 1:20 dilution of either DMSO or PR3 inhibitor (Abcam, Cat. No ab146184, final concentration 500 μM) in Assay Buffer was added to all wells and allowed to incubate at 37° C. for 15 minutes. […] The plate was immediately read at 340/430 nm (Excitation/Emission) post substrate addition in kinetic mode every 5 minutes for up to 3 hours (minimum 30 minutes) at 37° C. on a BioTek Gen5 Plate Reader. The raw data of the readings were exported into an Excel file for data analysis described below.
as §3, §4

active PR3 [5] = experiment: Active PR3 concentration in patients' WBC samples (kinetic PR3 assay); conditions: for % reduction from baseline in WBC samples, active PR3: week 4, reduction in arithmetic mean
Experimental: Except for using an exogenous peptide substrate specific for PR3 instead of NE, the PR3 kinetic assay is based on the same principle as the NE kinetic assay described above. Cleavage of PR3 Substrate by PR3 present in the sample generated the fluorophore reaction product 2-Aminobenzoyl or Anthraniloyl (Abz). The initial rate of this reaction, which is proportional to the amount of active PR3 in the sample, was measured in RFU and converted to the concentration of active PR3 in the sample. Specifically, standards were created via serial dilution of Human PR3 Stock Protein (Sigma, Cat. No SRP6309-25UG, see Table 1A) in a standard diluent which matched the ratio of lysis buffer to Enzyme Buffer (sample diluent) of the sample dilutions on a multi-well plate. Sample dilutions were created on the plate using Enzyme Buffer as the diluent. A 1:20 dilution of either DMSO or PR3 inhibitor (Abcam, Cat. No ab146184, final concentration 500 μM) in Assay Buffer was added to all wells and allowed to incubate at 37° C. for 15 minutes. Addition of DMSO was used as a placeholder in case future testing required addition of inhibitors for subtraction of nonspecific activity-induced cleavage. Following incubation, PR3 Substrate (Abz-VADCADQ-Lys(DNP), final concentration 100 μM) diluted in Assay Buffer was added to the sample and control wells in that order, and briefly mixed via pipetting 2-3 times. The plate was immediately read at 340/430 nm (Excitation/Emission) post substrate addition in kinetic mode every 5 minutes for up to 3 hours (minimum 30 minutes) at 37° C. on a BioTek Gen5 Plate Reader. The raw data of the readings were exported into an Excel file for data analysis described below.
as §2

SMILES: Cn1c(=O)oc2ccc(-c3ccc(C[C@@H](C#N)NC(=O)[C@@H]4CNCCCO4)cc3)cc21 [brensocatib, (2S)—N-{(1S)-1-cyano-2-[4-(3-methyl-2-oxo-2,3-dihydro-1,3-benzoxazol-5-yl)phenyl]ethyl}-1,4-oxazepane-2-carboxamide]
- change from baseline in concentration of active NE in WBC samples (time course) (active NE [1]; 10 mg and 25 mg arms, 24-week treatment, FIG. 14A): reduced by brensocatib treatment by week 4 in a dose-dependent manner
- % reduction from baseline in WBC samples, active NE (active NE [1]; 10 mg daily, week 4, reduction in arithmetic mean): 19%
- time for reduced active NE concentrations in WBC samples to recover to baseline levels after the end of the treatment period (active NE [1]; after 24-week treatment, FIG. 14A): about 4 weeks
- change from baseline in sputum concentration of active CatG (time course) (active CatG; 10 mg and 25 mg arms, FIG. 13C): reduced by brensocatib treatment by week 4 in a dose-dependent manner
- % reduction from baseline in sputum samples, active CatG (active CatG; 10 mg daily): 90%
- % reduction from baseline in sputum samples, active CatG (active CatG; 25 mg daily): 93%
- change from baseline in sputum concentration of active NE (time course) (active NE [2]; 10 mg and 25 mg arms, FIG. 13A): reduced by brensocatib treatment by week 4 in a dose-dependent manner
- % reduction from baseline in sputum samples, active NE (active NE [2]; 10 mg daily): 86%
- % reduction from baseline in sputum samples, active NE (active NE [2]; 25 mg daily): 91%
- reduction in the frequency of pulmonary exacerbations as compared to placebo ([3]; 10 mg arm, p=0.04): 36%
- time to the first pulmonary exacerbation (primary end point) ([3]; 10 mg once daily for 24 weeks, p=0.03): prolonged the time to the first exacerbation
- reduction in the frequency of pulmonary exacerbations as compared to placebo ([3]; 25 mg arm, p=0.17): 25%
- time to the first pulmonary exacerbation (primary end point) ([3]; 25 mg once daily for 24 weeks, p=0.04): prolonged the time to the first exacerbation
- change from baseline in sputum concentration of active PR3 (time course) (active PR3 [4]; 10 mg and 25 mg arms, FIG. 13B): reduced by brensocatib treatment by week 4 in a dose-dependent manner
- % reduction from baseline in sputum samples, active PR3 (active PR3 [4]; 10 mg daily): 21%
- % reduction from baseline in sputum samples, active PR3 (active PR3 [4]; 25 mg daily): 53%
- change from baseline in concentration of active PR3 in WBC samples (time course) (active PR3 [5]; 10 mg and 25 mg arms, FIG. 14B): reduced by brensocatib treatment to a lesser extent than the active NE concentrations
- % reduction from baseline in WBC samples, active PR3 (active PR3 [5]; 10 mg daily): No reduction
- % reduction from baseline in WBC samples, active PR3 (active PR3 [5]; 25 mg daily): 34%
